Assay results reported in patent US9486536B2 (Immunomedics, Inc., priority 2013, dated 2016).

Assays:
[1] = relative to doxorubicin; cited from earlier work
[2] = test system: Non-Hodgkin's Lymphoma (NHL); experiment: treatment of NHL patients; assay type: in vivo, human
Method: A P2PDox-epratuzumab ADC is prepared as described in Examples 1 and 3 above. Seventeen patients with previously untreated or relapsed NHL receive 4 doses of 70, 100 or 150 mg P2PDox-epratuzumab injected i.v. every two weeks. Responses are assessed by CT scans, with other evaluations including adverse event, B-cell blood levels, serum epratuzumab levels and human anti-epratuzumab (HAHA) titers.

[3] = test system: Daudi, Raji, Ramos and JVM-3 hematopoietic tumor lines; experiment: cytotoxicity of P2PDox-mAb conjugates to target cells; assay type: cell-based; details: not shown
Text: The cytotoxicity of P2PDox-mAb conjugates to target cells was examined. hRS7-P2PDox and hMN-15-P2PDox were cytotoxic to MDA-MB-468, AG S, NCI-N87 and Capan-1 solid tumor cell lines (not shown). hMN-14-P2PDox was cytotoxic to Capan-1, BxPC-3 and AsPC-1 human pancreatic tumor lines and AGS, NCI-N87 and LS147T human gastric and colonic tumor lines (not shown). hLL2-P2PDOx was cytotoxic to Daudi, Raji, Ramos and JVM-3 hematopoietic tumor lines (not shown). IC50 values for the conjugates were in the nanomolar concentration range (not shown).

CD22 = CD22 (Homo sapiens, UniProt P20273); experiment: antibody binding to target antigen after conjugation
moderately active SLE = experiment: open-label study in SLE patients
Method: An open-label, single-center study of patients with moderately active SLE (total British Isles Lupus Assessment Group (BILAG) score 6 to 12) is conducted. Patients receive dosages of epratuzumab-P2PDox (conjugated at a drug/antibody ratio of 3.5) of 10, 20, 40 and 60 mg conjugate i.v. every other week for 3 injections, repeated 4 months later. Evaluations include safety, SLE activity (BILAG), blood levels of B and T cells, and human anti-epratuzumab antibody (HAHA) titers.

[4] = 4 doses of 70, 100 or 150 mg i.v. every two weeks, 17 patients

Row | Compound | cytotoxicity, times that of doxorubicin [1] | complete response/complete response unconfirmed rate [2, 4] | objective response rate [2, 4] | transient B-cell depletion ([2]; all dosage levels) | human anti-epratuzumab antibody (HAHA) in serum samples ([2]; human, in vivo) | objective responses continuing for 30 weeks or more ([2]; human, in vivo) | safety issues ([2]; reversible after interrupting therapy) | cytotoxicity [3] | effect of conjugation on antibody binding (CD22) | decrease of total BILAG scores (moderately active SLE; all patients, 10, 20, 40 and 60 mg i.v. every other week for 3 injections, drug/antibody ratio 3.5) | patients with improvement in at least one BILAG B- or C-level disease activity (moderately active SLE; at 6, 10 and 18 weeks) | average decrease of B-cell levels (moderately active SLE; at 18 weeks) | patients with BILAG decreases continuing to at least 18 weeks (moderately active SLE; human, in vivo) | tolerability (moderately active SLE; human, in vivo)
1 | COc1cccc2c1C(=O)c1c(O)c3c(c(O)c1C2=O)C[C@@](O)(C(=O)CO)C[C@@H]3O[C@H]1C[C@H](N2C=CCC2)[C@H](O)[C@H](C)O1 [2-pyrrolinodoxorubicin] | 500-1000 times | – | – | – | – | – | – | – | – | – | – | – | – | –
2 | hLL2-P2PDox | – | 24% | 47% | up to 25% | negative | Four of the eight | neutropenia up to Grade 3 | cytotoxic | lack of effect of conjugation on antibody binding to target antigen | at least 50% | 93% | 35% | 92% | well tolerated
